Our source for the IC50 values is patent publication US9802918B2, “Pyridineamine compounds useful as Pim kinase inhibitors” (Incyte Corporation, priority 2015, dated 2017).

Common to all, as to format: biochemical
One test has as its target Pim-3 (Homo sapiens (Human), UniProt Q86V86). In words: Pim-3 kinase assay. The conditions noted are these: 1 mM ATP; read-out: Pim3 IC50. The gist of the method:
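Human Pim-3 at 1.25 pM phosphorylated […] biotin-BAD peptide with 1 mM ATP for 1 h at 25° C, in pH 7.5 Tris buffer with 5 mM MgCl2 and 5 mM DTT. Reactions were stopped with EDTA buffer containing phospho-Bad (Ser112) antibody and AlphaScreen donor/acceptor beads. Plates were read after 1 h dark incubation at room temperature.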

The next test concerns the target Pim-2 (Homo sapiens (Human), UniProt Q9P1W9). Kind of test: Pim-2 kinase assay. The conditions noted are these: 1 mM ATP; read-out: Pim2 IC50. The method in brief: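 Pim-2 (1 nM) with fluorescein-CREBtide ([…]) and 1 mM ATP in Tris pH 7.5, MgCl2, DTT buffer, 2 h at 25 °C. Stopped with EDTA plus Tb-anti-CREB pSer133 antibody; phosphorylation read by TR-FRET after 30 min.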

The next test has as its target Pim-1 (Homo sapiens (Human), UniProt P11309). In words: Pim-1 kinase assay. The following applies: 1 mM ATP; read-out: Pim1 IC50. The procedure:
Supplementation of the STOP buffer with beads and stopping the reactions were done under reduced light. Prior to the stopping reactions STOP buffer with beads was preincubated for 1 h in the dark at room temperature. After stopping the reactions, plates were incubated for 1 h in the dark at room temperature before reading on a PHERAstar FS plate reader (BMG Labtech) under reduced light.

Pim-1, sequence (P11309 whole entry): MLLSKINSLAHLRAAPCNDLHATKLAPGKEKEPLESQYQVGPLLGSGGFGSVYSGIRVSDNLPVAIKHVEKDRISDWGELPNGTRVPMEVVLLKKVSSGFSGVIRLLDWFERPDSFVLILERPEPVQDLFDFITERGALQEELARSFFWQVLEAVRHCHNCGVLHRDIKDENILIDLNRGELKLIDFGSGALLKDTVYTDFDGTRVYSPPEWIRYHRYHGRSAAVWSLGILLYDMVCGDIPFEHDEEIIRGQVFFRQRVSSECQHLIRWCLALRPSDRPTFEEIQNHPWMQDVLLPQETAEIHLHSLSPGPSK
Pim-2, sequence (Q9P1W9 whole entry): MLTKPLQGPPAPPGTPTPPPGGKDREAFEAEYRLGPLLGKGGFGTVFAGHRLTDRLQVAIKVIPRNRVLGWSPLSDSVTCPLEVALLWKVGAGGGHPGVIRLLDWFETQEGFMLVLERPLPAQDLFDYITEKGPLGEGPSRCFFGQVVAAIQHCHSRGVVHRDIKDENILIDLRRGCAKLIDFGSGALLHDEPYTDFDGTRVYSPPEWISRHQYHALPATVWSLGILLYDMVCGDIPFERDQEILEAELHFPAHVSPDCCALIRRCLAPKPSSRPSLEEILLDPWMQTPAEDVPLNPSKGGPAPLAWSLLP

For the compound `COc1cc(F)c(-c2nc(CNc3cnccc3N3C[C@H](C)C[C@H](N)C3)ccc2F)c(F)c1` [Example 83, 4-[(3S,5R)-3-Amino-5-methylpiperidin-1-yl]-N-{[6-(2,6-difluoro-4-methoxyphenyl)-5-fluoropyridin-2-yl]methyl}pyridin-3-amine], the values for the IC50 at Pim-3, on Pim-2 and on Pim-1 were no more than 10 nM, no more than 100 nM and less than 10 nM, respectively.
In the same order, the values of `C[C@@H]1C[C@H](N)CN(c2ccncc2NCc2ccc(F)c(-c3ccc(C#N)cc3F)n2)C1` [Example 84, 4-{6-[({4-[(3S,5R)-3-Amino-5-methylpiperidin-1-yl]pyridin-3-yl}amino)methyl]-3-fluoropyridin-2-yl}-3-fluorobenzonitrile] are no more than 10 nM, 100 to 1000 nM and less than 10 nM.
In the same order, the values of `C[C@@H]1C[C@H](N)CN(c2ccncc2NCc2ccc(F)c(-c3ccc4sccc4c3)n2)C1` [Example 85, 4-[(3S,5R)-3-Amino-5-methylpiperidin-1-yl]-N-{[6-(1-benzothien-5-yl)-5-fluoropyridin-2-yl]methyl}pyridin-3-amine] are no more than 10 nM, 100 to 1000 nM and less than 10 nM.
For the compound `C[C@@H]1C[C@H](N)CN(c2ccncc2NCc2ccc(F)c(-c3ccc4c(c3)NC(=O)C4)n2)C1` [Example 86, 6-{6-[({4-[(3S,5R)-3-Amino-5-methylpiperidin-1-yl]pyridin-3-yl}amino)methyl]-3-fluoropyridin-2-yl}-1,3-dihydro-2H-indol-2-one], the IC50 (in general, the concentration that inhibits the measured activity by half) on Pim-3 was no more than 10 nM; at Pim-2 it was 100 to 1000 nM; at Pim-1 it was less than 10 nM.
With `C[C@H]1CN(c2c(NCc3ccc(F)c(-c4c(F)cccc4F)n3)cnc3c2CCO3)C[C@@H](N)[C@@H]1O` [Example 88, (3R,4R,5S)-3-Amino-1-[5-({[6-(2,6-difluorophenyl)-5-fluoropyridin-2-yl]methyl}amino)-2,3-dihydrofuro[2,3-b]pyridin-4-yl]-5-methylpiperidin-4-ol], the IC50 at Pim-3 is no more than 10 nM; at Pim-2, 1000 to 10000 nM; on Pim-1, less than 10 nM.
In the same order, the values of `C[C@@H]1C[C@H](N)CN(c2c(NCc3ccc(F)c(-c4c(F)cccc4F)n3)cnc3c2CCC3)C1` [Example 89, 4-[(3S,5R)-3-Amino-5-methylpiperidin-1-yl]-N-{[6-(2,6-difluorophenyl)-5-fluoropyridin-2-yl]methyl}-6,7-dihydro-5H-cyclopenta[b]pyridin-3-amine] are no more than 10 nM, 100 to 1000 nM and less than 10 nM.
In the same order, the values of `N[C@@H]1CN(c2ccncc2NCc2ccc(F)c(-c3c(F)cccc3F)n2)CC[C@H]1F` [Example 90, 4-[(3R,4R)-3-Amino-4-fluoropiperidin-1-yl]-N-{[6-(2,6-difluorophenyl)-5-fluoropyridin-2-yl]methyl}pyridin-3-amine] are no more than 10 nM, 1000 to 10000 nM and less than 10 nM.
In the same order, the values of `C[C@@H]1C[C@H](N)CN(c2ccncc2NCc2ccc3ccc(-c4ccc5c(c4)OCC5)cc3n2)C1` [Example 91, 4-[(3S,5R)-3-Amino-5-methylpiperidin-1-yl]-N-{[7-(2,3-dihydro-1-benzofuran-6-yl)quinolin-2-yl]methyl}pyridin-3-amine] are no more than 10 nM, 100 to 1000 nM and less than 10 nM.
Turning to `C[C@@H]1C[C@H](N)CN(c2ccncc2NCc2ccc3ccc(-c4ccn5ccnc5c4)cc3n2)C1` [Example 92, 4-[(3S,5R)-3-Amino-5-methylpiperidin-1-yl]-N-[(7-imidazo[1,2-a]pyridin-7-ylquinolin-2-yl)methyl]pyridin-3-amine], the concentration for half-maximal inhibition (IC50) on Pim-3 is no more than 10 nM; on Pim-2, 100 to 1000 nM; at Pim-1, less than 10 nM.
Turning to `C[C@H]1CN(c2ccncc2NCc2ccc3ccc(-c4ccn5ccnc5c4)cc3n2)C[C@@H](N)[C@@H]1O` [Example 93, (3R,4R,5S)-3-Amino-1-(3-{[(7-imidazo[1,2-a]pyridin-7-ylquinolin-2-yl)methyl]amino}pyridin-4-yl)-5-methylpiperidin-4-ol], the IC50 on Pim-3 is no more than 10 nM; on Pim-2, 100 to 1000 nM; on Pim-1, less than 10 nM.
In the same order, the values of `C[C@H]1CN(c2ccncc2NCc2ccc3occ(-c4c(F)cc(CO)cc4F)c3n2)C[C@@H](N)[C@@H]1O` [Example 96, (3R,4R,5S)-3-amino-1-(3-(((3-(2,6-difluoro-4-(hydroxymethyl)phenyl)furo[3,2-b]pyridin-5-yl)methyl)amino)pyridin-4-yl)-5-methylpiperidin-4-ol] are no more than 10 nM, 100 to 1000 nM and less than 10 nM.
`C[C@H]1CN(c2ccncc2NCc2ccc3occ(-c4ccc(CO)cc4F)c3n2)C[C@@H](N)[C@@H]1O` [Example 97, (3R,4R,5S)-3-amino-1-(3-(((3-(2-fluoro-4-(hydroxymethyl)phenyl)furo[3,2-b]pyridin-5-yl)methyl)amino)pyridin-4-yl)-5-methylpiperidin-4-ol]: the IC50 is no more than 10 nM at Pim-3, 100 to 1000 nM at Pim-2 and 10 to 50 nM at Pim-1.
In the same order, the values of `CC(C)c1coc2ccc(CNc3cnccc3N3C[C@H](C)C[C@H](N)C3)nc12` [Example 98, 4-[(3S,5R)-3-Amino-5-methylpiperidin-1-yl]-N-[(3-isopropylfuro[3,2-b]pyridin-5-yl)methyl]pyridin-3-amine] are no more than 10 nM, 100 to 1000 nM and less than 10 nM.
Consider `C[C@@H]1C[C@H](N)CN(c2ccncc2NCc2ccc3occ(-c4c(F)cc(CO)cc4F)c3n2)C1` [Example 99, (4-(5-((4-((3S,5R)-3-amino-5-methylpiperidin-1-yl)pyridin-3-ylamino)methyl)furo[3,2-b]pyridin-3-yl)-3,5-difluorophenyl)methanol], for which the concentration for half-maximal inhibition (IC50) is no more than 10 nM on Pim-3, no more than 100 nM on Pim-2 and less than 10 nM at Pim-1.
The matching figures for `C[C@@H]1C[C@H](N)CN(c2ccncc2NCc2ccc3occ(-c4ccc(CO)cc4F)c3n2)C1` [Example 100, (4-(5-((4-((3S,5R)-3-amino-5-methylpiperidin-1-yl)pyridin-3-ylamino)methyl)furo[3,2-b]pyridin-3-yl)-3-fluorophenyl)methanol]: no more than 10 nM, no more than 100 nM and less than 10 nM.
The matching figures for `C[C@@H]1C[C@H](N)CN(c2ccncc2NCc2ccc3occ(C4CC4)c3n2)C1` [Example 102, 4-[(3S,5R)-3-Amino-5-methylpiperidin-1-yl]-N-[(3-cyclopropylfuro[3,2-b]pyridin-5-yl)methyl]pyridin-3-amine]: no more than 10 nM, 100 to 1000 nM and less than 10 nM.
On to `C[C@@H]1C[C@H](N)CN(c2ccncc2NCc2ccc(F)c(-c3c(F)cc(OCC(C)(C)O)cc3F)n2)C1` [Example 103, 1-(4-{6-[({4-[(3S,5R)-3-Amino-5-methylpiperidin-1-yl]pyridin-3-yl}amino)methyl]-3-fluoropyridin-2-yl}-3,5-difluorophenoxy)-2-methylpropan-2-ol], for which the 50% inhibitory concentration (IC50) at Pim-3 was no more than 10 nM; on Pim-2 it was no more than 100 nM; on Pim-1, less than 10 nM.
In the same order, the values of `C[C@H]1CN(c2ccncc2NCc2ccc(F)c(-c3c(F)cc(OCC(C)(C)O)cc3F)n2)C[C@@H](N)[C@@H]1O` [Example 104, (3R,4R,5S)-3-Amino-1-{3-[({6-[2,6-difluoro-4-(2-hydroxy-2-methylpropoxy)phenyl]-5-fluoropyridin-2-yl}methyl)amino]pyridin-4-yl}-5-methylpiperidin-4-ol] are no more than 10 nM, 100 to 1000 nM and less than 10 nM.
In the same order, the values of `C[C@@H]1C[C@H](N)CN(c2ccncc2NCc2ccc(F)c(-c3c(F)cc(C(C)(C)O)cc3F)n2)C1` [Example 105, 2-(4-{6-[({4-[(3S,5R)-3-Amino-5-methylpiperidin-1-yl]pyridin-3-yl}amino)methyl]-3-fluoropyridin-2-yl}-3,5-difluorophenyl)propan-2-ol] are no more than 10 nM, no more than 100 nM and less than 10 nM.
Turning to `C[C@H]1CN(c2ccncc2NCc2ccc(F)c(-c3c(F)cc(C(C)(C)O)cc3F)n2)C[C@@H](N)[C@@H]1O` [Example 106, (3R,4R,5S)-3-Amino-1-{3-[({6-[2,6-difluoro-4-(1-hydroxy-1-methylethyl)phenyl]-5-fluoropyridin-2-yl}methyl)amino]pyridin-4-yl}-5-methylpiperidin-4-ol], the half-maximal inhibitory concentration (IC50) is no more than 10 nM on Pim-3, no more than 100 nM at Pim-2 and less than 10 nM on Pim-1.
Consider `C[C@H]1CN(c2ccncc2NCc2ccc3ccc(-c4ccn(C)c(=O)c4F)cc3n2)C[C@@H](N)[C@@H]1O` [Example 107, 4-{2-[({4-[(3R,4R,5S)-3-Amino-4-hydroxy-5-methylpiperidin-1-yl]pyridin-3-yl}amino)methyl]quinolin-7-yl}-3-fluoro-1-methylpyridin-2(1H)-one], for which the concentration for half-maximal inhibition (IC50) on Pim-3 is no more than 10 nM; at Pim-2, no more than 100 nM; at Pim-1, less than 10 nM.
